Assays:
ERα [1] = target: T1, ERα (Homo sapiens, UniProt P03372); assay: 3XEREluc reporter assay with ERα specific ligand in Ishikawa cells; format: cell-based; details: PELP1-transfected Ishikawa cells treated with PPT; FIG. 7C
T1 sequence (P03372 1-595): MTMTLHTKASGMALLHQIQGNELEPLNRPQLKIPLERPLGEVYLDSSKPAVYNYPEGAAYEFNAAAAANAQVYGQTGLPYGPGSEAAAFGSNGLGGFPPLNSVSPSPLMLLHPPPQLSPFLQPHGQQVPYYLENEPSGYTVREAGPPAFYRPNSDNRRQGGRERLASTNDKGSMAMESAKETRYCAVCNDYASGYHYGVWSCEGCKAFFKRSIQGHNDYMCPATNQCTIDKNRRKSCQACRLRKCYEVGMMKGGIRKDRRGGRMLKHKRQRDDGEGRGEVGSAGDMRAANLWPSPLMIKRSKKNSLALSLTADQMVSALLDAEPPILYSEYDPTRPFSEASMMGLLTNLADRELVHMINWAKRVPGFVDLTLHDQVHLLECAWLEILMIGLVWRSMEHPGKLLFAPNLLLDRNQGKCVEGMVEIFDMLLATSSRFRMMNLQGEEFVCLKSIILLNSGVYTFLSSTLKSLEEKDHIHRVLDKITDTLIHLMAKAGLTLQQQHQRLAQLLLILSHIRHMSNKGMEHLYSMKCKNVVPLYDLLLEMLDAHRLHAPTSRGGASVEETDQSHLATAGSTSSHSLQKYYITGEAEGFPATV
Description: (§1) PELP1 is widely expressed in endometrial cancer cells including the widely used endometrial cell lines (Ishikawa and RL 95-2). Control MCF-7 (ERα-positive) and MDA-MB-231 (ERβ-positive) breast cancer cells were also analyzed. (FIG. 7A). […] PELP1 modulation of the transactivation functions of both ER subtypes was performed using ERα or ERβ specific ligands. […] PELP1 also promotes ERβ transcriptional activity in Ishikawa cells when cotransfected with PELP1 (FIG. 7F). Further, endogenous PELP1 effectively interacts with ERβ in Ishikawa cells in a ligand-dependent manner (FIG. 7G).

ER = ER transactivation assay (ERE-luciferase) in ER-positive Ishikawa cells; format: cell-based; details: coexpression of PELP1, compared to 6 fold in vector-transfected cells, FIG. 7B
Description: as §1

MCF-7 cells = assay: Tamoxifen-mediated agonist signaling, reporter gene and cell growth assays, MCF-7 cells; format: cell-based; details: MCF-7 cells co-transfected with ERE reporter gene; two days
Excerpt: (§2) Interference with PELP1 function blocks tamoxifen-mediated agonist activity in endometrial cell lines. Disruption of PELP1 functions was examined to assess interference with tamoxifen-mediated agonist signaling using reporter gene assays and cell growth assays performed in an endometrial cell line (Ishikawa) and a breast cancer cell line (MCF-7). Cancer cells were co-transfected with ERE reporter gene along with either (a) PELP1 cDNA, (b) PELP1 H1 […]), (c) PELP1 mutant cDNA lacking the nuclear localization signal (PELP-NLS mutant), or (d) PELP1-specific siRNA. Cells were stimulated with estrogen for two days and reporter gene activity and cell number were measured.

Ishikawa cells = assay: Tamoxifen-mediated agonist signaling, reporter gene and cell growth assays, Ishikawa cells; format: cell-based; details: Ishikawa cells co-transfected with ERE reporter gene; two days
Excerpt: as §2

ERα [2] = target: T1, ERα; assay: E2-mediated transactivation with PELP1 mutant lacking C-terminal histone-binding region; details: FIG. 9
ERE reporter gene = ERE reporter gene assay in Ishikawa cells with or without PELP1 H1 mutant; format: cell-based, human; details: Ishikawa cells transfected with ERE reporter gene, treated or not treated with estrogen; FIG. 1E
Excerpt: Ishikawa (human endometrial adenocarcinoma) cells were transfected with ERE reporter gene with or without the PELP1 H1 mutant. […]

ERE luciferase reporter = ERE luciferase reporter assay in MCF-7, Ishikawa, HeLa and SaoS2 cells; details: E2 10^−9M, 24 hours

Row | Molecule | increase of 3XEREluc reporter activity (ERα [1]) | increase of ERE-luciferase (luc) activity in ligand-stimulated cells (ER) | tamoxifen-mediated agonist activity (MCF-7 cells) | tamoxifen-mediated agonist activity (Ishikawa cells) | ERα mediated transcription (ERα [2]) | estrogen-mediated transcriptional activation (ERE reporter gene activity) (ERE reporter gene) | ERE luciferase reporter activity (ERE luciferase reporter; FIG. 2) | ERE luciferase reporter activity (ERE luciferase reporter; FIG. 2, listed as Histone H1 mutant)
1 | CCCc1c(-c2ccc(O)cc2)nn(-c2ccc(O)cc2)c1-c1ccc(O)cc1 [PPT] | 9 times more than the vector-transfected control | – | – | – | – | – | – | –
2 | wild-type PELP1: Proline, glutamic acid and leucine rich protein 1, full length, expressed from PELP1 cDNA; SEQ ID NO:1 | – | 9 fold | not in MCF-7 cells | augmented tamoxifen-mediated agonist activity | – | – | – | –
3 | PELP1 H1 mutant: C-terminal deleted PELP1 mutant (aa 1-877), stop codon after amino acid 877, lacks Histone H1 binding domain; SEQ ID NO:14 | – | – | – | disrupted tamoxifen-mediated agonist activity | blocks ERα mediated transcription | blocking of estrogen-mediated transcriptional activation | effectively suppressed the estrogen mediated ER coactivation functions | substantially reduced the magnitude of the transcriptional activation by estrogen
